Consider six compounds from patent US9993436B2, “Porous hollow fiber anti-solvent crystallization-based continuous method of polymer coating on submicron and nanoparticles” (New Jersey Institute of Technology, priority 2014, dated 2018).

Each structure is given as a SMILES string. In brackets after ≈: the same amount, converted by molar mass.

A short description of one data set: physchem. The text has this:
Eudragit RL 100 (Mw, 150,000; a copolymer of methyl methacrylate, ethyl acrylate and methacrylic acid ester) from Evonik-Degussa (Parsippany, N.J.) was employed as the coating polymer. Drug particles of Griseofulvin (GF) from Letco (Decatur, Ala.) were used without further treatment. […] Sodium dodecyl sulfate (SDS) was used as a surfactant (Sigma-Aldrich). Deionized water was used as the tube side anti-solvent liquid. The Nylon 6 hollow fibers were obtained from ENKA America Inc. (Asheville, N.C.).

Data set [1] can be described thus: Particle size distribution by laser diffraction particle size analyzer. Type of data set: physicochemical. As to the method: A laser diffraction particle size analyzer (LS230, Beckman Coulter, Brea, Calif.) was used to identify the extent of particle agglomeration. An aqueous micron-size suspension of the particle sample was prepared after 30 s of sonication to break the soft bonding between particles. After that a few drops of the suspension were introduced in the inlet of the instrument for analysis.
Residence time plays an important role in the PHFAC process since precipitation of both the polymer and the drug can be affected by the variation of residence time in the shell side of the module. Residence time can be simply altered by changing the shell-side feed solution flow rate. To identify the influence of the feed solution flow rate on the particle size distribution (PSD) of GF crystals, the solution containing the dissolved drug without any polymer was passed through the PHFAC module at different rates. The particle size distribution will be affected by the extent of supersaturation created and the rate at which supersaturation is created. Both are influenced by the rate at which the anti-solvent is introduced from the tube side to the shell side for a given feed solution flow rate.
Since one of the objectives of the study is to understand the impact of this novel PHFAC coating technique on the synthesized drug particles, the as-received uncoated GF particles and the Eudragit-coated GF particles obtained from the PHFAC were selected for particle size distribution analysis. A suspension of the samples in water was carefully dropped into the inlet of the laser diffraction particle size analyzer. The median size of the uncoated GF sample (11.6 μm) was close to the manufacturer's specification (10 μm). After polymer coating, the median size of the coated drug particles increased to 19.2 μm. One reason for the median size increase is obviously due to the coating which increases the particle size. Another reason is that the coating of GF by the polymer brings in a certain amount of agglomeration. Attachment of neighboring coated drug particles will take place due to the sticking tendency of the polymer-formed liquid bridges.
A laser diffraction particle size analyzer (LS 230, Beckman Coulter, Brea, Calif.) was used to determine the particle size distribution. An aqueous particle suspension of the particle sample was prepared by introducing the dry sample powder into DI water and sonicating it for about 30 seconds to break the soft bonding.

The conditions of data set [2]: cited from earlier work.
Data set [3] can be described thus: Dissolution test, USP II paddle method, UV at 296 nm. Type of data set: physicochemical. The following applies: up to 50 minutes; 0.27% SDS solution 900 mL, 37° C., paddle 50 rpm; FIG. 8. The procedure:
Dissolution tests for the uncoated and coated Griseofulvin particles were determined via a Distek dissolution tester (North Brunswick, N.J.). According to the USP II paddle method, 0.27% of SDS solution with 900 mL volume was added into the vessel as a buffer solution. Temperature of the medium was maintained at 37° C. and a paddle stirring speed of 50 rpm was used. The sample used was equivalent to a dose of 35 mg of GF, and dropped into a dissolution vessel containing the buffer solution. Samples having a volume of 6 mL were taken out at 1, 3, 5, 10, 20, 30, 40, 50 and 80 min and immediately analyzed by UV spectroscopy (52100UV+, Cole-Parmer, Vernon Hills, Ill.) at a wavelength of 296 nm. As a blank benchmark for the test, a 0.27% SDS buffer solution was measured first.
To illustrate the advantages of a coated drug for controlled release, dissolution tests were performed on three samples: as-received drug, uncoated drug, and polymer-coated drug.

[4] abbreviates: drug crystals from PHFAC module without any polymer in the feed solution, various shell/tube side flow rates.

By solubility is commonly meant the dissolved amount per volume that the medium holds. In the case of `COC1=CC(=O)C[C@@H](C)[C@]12Oc1c(Cl)c(OC)cc(OC)c1C2=O` [GF, Griseofulvin], the solubility in water entry in the data set “physchem” was “practically insoluble”. In addition, the solubility in “physchem” (organic solvent or mixture) worked out at 116 mM (≈ 40.9 mg/mL). In data set [1] (suspension in water, FIG. 4), this compound had a Median size of 11.6 μm. Also, in data set [2], the “median size, manufacturer's specification” value is 10 μm.
Take `COC1=CC(=O)C[C@@H](C)[C@]12Oc1c(Cl)c(OC)cc(OC)c1C2=O` [X0, Griseofulvin]: in data set [1] (setting [4]), the Median size amounted to 1.617 μm, the d10 came to 1.001 μm and the d90 is 2.219 μm.
On the same counts, the results for `COC1=CC(=O)C[C@@H](C)[C@]12Oc1c(Cl)c(OC)cc(OC)c1C2=O` [X1, Griseofulvin] are 7.333 μm, 4.977 μm and 15.29 μm.
On the same counts, the results for `COC1=CC(=O)C[C@@H](C)[C@]12Oc1c(Cl)c(OC)cc(OC)c1C2=O` [X2, Griseofulvin] are 11.83 μm, 2.117 μm and 30.30 μm.
The matching figures for `COC1=CC(=O)C[C@@H](C)[C@]12Oc1c(Cl)c(OC)cc(OC)c1C2=O` [X3, Griseofulvin]: 11.76 μm, 2.939 μm and 26.62 μm.
On to `COC1=CC(=O)C[C@@H](C)[C@]12Oc1c(Cl)c(OC)cc(OC)c1C2=O` [uncoated GF, Griseofulvin], for which the “dissolution profile (comparison of curves)” value in data set [3] is recorded as “essentially similar dissolution curves”.
